Test results from ChEMBL document CHEMBL3430912, “GSK Tres Cantos Anti-Kinetoplastid Screening (TCAKS) Data”.

Key:
Leishmania donovani [1] = assay: (§1) GSK_TCAKS: pIC50 Leishmania donovani Imaging: THP-1 Host Macrophages. Assay plates (384-well) were prepared by adding 250nL of compound to each well. For single shot assay, the final compound concentration was 5 uM. […] Automated image analysis was performed with a script developed on Acapella High Content Imaging and Analysis Software (PerkinElmer). Output: THP-1 cell count were reported for each well.; format: functional, organism-based, Homo sapiens
Leishmania donovani [2] = assay: as §1, with “Infected” for “THP-1 Host”, “Percent of infected macrophage cells” for “THP-1 cell count”; format: functional, organism-based, Homo sapiens; settings: THP-1
Trypanosoma cruzi [3] = assay: (§2) GSK_TCAKS: pIC50 Trypanosoma cruzi Imaging: Infected Cells. […] Cells were then washed once with PBS before infection. T. cruzi trypomastigotes, collected at days 5 to 8 after infection from LLC-MK2 parasite infected cultures, were allowed to swim out for 4h at 37C from a centrifuged pellet (2,500 rpm/10 min/room temperature). Trypomastigotes were then collected and counted in a CASY Cell Counter. Trypomastigotes, in supplemented DMEM, were added to H9c2 cultures in a multiplicity of infection of 1 and incubated for 18 h. Cells were washed once with PBS before incubation of the infected H9c2 monolayer with trypsin (Life-Technologies) to detach cells from the flask. Cells were counted in a CASY Cell Counter using a 150 um capillary and their density set at 5 * 10^4 cells per mL in supplemented assay DMEM. Infected H9c2 were dispensed into 384-well poly-lysine coated assay plates at 50uL per well using a Multidrop Combi dispenser. After seeding them, the plates were incubated at 37C, 5% CO2 for 72h. Cultures were then fixed and stained by addition of 50 uL of a solution containing 8% formaldehyde and 4 uM DRAQ5 DNA dye (BioStatus, UK) per well. […] Five images were collected per well for reliable statistical analysis. Automated image analysis was performed with a script developed on Acapella High Content Imaging and Analysis Software (PerkinElmer). Output: percentage of infected cells per well as a second infection marker.; format: functional, organism-based, Rattus norvegicus; settings: H9c2, 4 h
[4] = GSK_TCAKS: pIC50 HepG2 human cell line viability assay using luminiscence. […] Seeding density was checked to ensure that new mono-layers were not more than 50% confluent at the time of harvesting. Cell suspension was added to 500 mL of the same medium at a final density of 1.2 * 10^5 cells/mL. This cell suspension was dispensed (25 uL, 3000 cells per well) into 384-well clear-bottom plates using a Multidrop Combi dispenser. Prior to addition of the cell suspension, the screening compounds (250 nL) were pre-dispensed into the plates with an Echo liquid handler. Plates were incubated for 48 h at 37C, 5% CO2. After incubation, plates equilibrated at room temperature for 30 min before proceeding to develop the luminescent signal. The signal developer, CellTiter-Glo Reagent, was allowed to equilibrate at room temperature for 30 min and added to the plates (25uL per well) using a Multidrop Combi dispenser. Plates were left for 10 min at room temperature for stabilization and then read using a ViewLux.; format: toxicity, cell-based
[5] = test system: Trypanosoma brucei brucei; assay: GSK_TCAKS: pIC50 Trypanosoma brucei viability assay using fluorescence intensity. Assay plates (1536-well) were prepared by dispensing 25nL of compound solution per well using an Echo acoustic dispenser (Labcyte).; format: functional, organism-based; settings: Lister 427, 2 h
[6] = test system: Trypanosoma brucei brucei; assay: GSK_TCAKS: pIC50 Trypanosoma brucei viability assay using luminiscence. Assay plates (1536-well) were prepared. T. brucei cultures were harvested and counted in a CASY cell counter. A parasite suspension was prepared at a final concentration of 5 * 10^4 cells/mL in complete HMI9 medium and 6uL was dispensed to all wells containing compounds using a Multidrop Combi dispenser. 6uL of HMI9 media with 0.4% DMSO were dispensed to control columns. Plates were incubated for 24 h at 37C, 5% CO2 then tempered for 10 min at room temperature. ATP content was quantified by adding 4 uL of CellTiter-Glo Reagent (Promega) according to the manufacturer's instructions. Luminescence was measured using a ViewLux.; format: functional, organism-based; settings: Lister 427, CASY
[7] = molecular target: Sterol 14-alpha demethylase (Trypanosoma cruzi (strain CL Brener), UniProt Q7Z1V1); assay: GSK_TCAKS: pIC50 CYP51 from Trypanosoma cruzi.; format: functional
Sequence of Sterol 14-alpha demethylase (Q7Z1V1 whole entry): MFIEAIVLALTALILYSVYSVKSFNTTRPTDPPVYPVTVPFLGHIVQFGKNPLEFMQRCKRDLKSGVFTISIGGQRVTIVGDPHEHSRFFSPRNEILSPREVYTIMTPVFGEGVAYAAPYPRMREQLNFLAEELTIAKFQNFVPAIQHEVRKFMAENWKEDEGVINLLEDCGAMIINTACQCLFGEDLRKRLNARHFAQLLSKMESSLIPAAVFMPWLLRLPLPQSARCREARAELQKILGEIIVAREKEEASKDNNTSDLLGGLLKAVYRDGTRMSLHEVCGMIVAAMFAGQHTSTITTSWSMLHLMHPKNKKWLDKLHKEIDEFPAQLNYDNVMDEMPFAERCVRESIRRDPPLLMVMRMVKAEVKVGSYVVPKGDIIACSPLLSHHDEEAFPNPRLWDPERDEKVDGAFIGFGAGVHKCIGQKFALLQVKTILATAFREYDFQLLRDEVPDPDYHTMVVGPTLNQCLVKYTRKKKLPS

Leishmania donovani [8] = assay: as §1, with “Amastigotes/Macrophages.” for “THP-1 Host Macrophages.”, “Average number of amastigotes per macrophage” for “THP-1”, “cell” for “cell count”; format: functional, organism-based, Homo sapiens; settings: THP-1
Trypanosoma cruzi [9] = assay: as §2, with “H2C9” for “Trypanosoma cruzi”, “H9c2 Host Cardiomyocytes.” for “Infected Cells.”, “Number” for “percentage”, “H9c2 Host Cardiomyocytes nuclei to determine drug-related cytotoxicity.” for “infected cells per well as a second infection marker.”; format: functional, organism-based, Rattus norvegicus; settings: H9c2, 4 h
Trypanosoma cruzi [10] = assay: GSK_TCAKS: pIC50 Trypanosoma cruzi viability assay using beta-GAL activity. This assay was run at single shot at 5uM compound concentration per well. The biological reagents consisted of NIH-3T3 host cells and trypomastigotes parasitic cells; both cell types were set to a 3.3 * 10^5 cells/mL dilution in assay DMEM by means of a CASY cell counter device using a 60um capillary. 6 uL of the mixture were dispensed per well (about 1 * 10^3 host-cells and 1 * 10^3 parasites) with a Multidrop Combi dispenser. […] In all wells, the percentage of DMSO never exceeded 0.5%. Plates incubated for four days at 37C, 5% CO2. The substrate used for the assay fluorescence intensity (FLINT) readout was resorufin-beta-D-galactopiranoside (Sigma-Aldrich) at 5uM per well. It was diluted in PBS supplemented with the soft detergent Igepal (Fluka).; format: functional, organism-based, Mus musculus; settings: Tulahuen, NIH3T3
Leishmania donovani [11] = assay: GSK_TCAKS: pIC50 Leishmania donovani viability assay using fluorescence intensity. Assay plates (1536-well) were prepared by adding 30nL per well of compound. For single shot assay, the final compound concentration was 5uM. […] Briefly, eGFP LdBOB axenic amastigotes were harvested, fixed and counted in a CASY cell counter (Roche-Applied Science). A final concentration of 1.5 * 10^5 cells per well were prepared in amastigote media containing 500 U/mL penicillin/streptomycin (Invitrogen) and 6uL was dispensed to each experimental well using a Multidrop Combi dispenser (Thermo Scientific). 6uL of assay media was dispensed to control columns used as reference for 100% compound response. Following incubation for 72 h at 37C, 5% CO2, 2 uL of resazurin was added to each well at a final concentration of 0.5 mM in phosphate buffered saline (PBS) with IGEPAL (Sigma-Aldrich), 0.05% (v/v).; format: functional, organism-based
Trypanosoma cruzi [12] = assay: GSK_TCAKS: pIC50 Trypanosoma cruzi Imaging: Amastigotes/Cell. […] Cells were then washed once with PBS before infection. T. cruzi trypomastigotes, collected at days 5 to 8 after infection from LLC-MK2 parasite infected cultures, were allowed to swim out for 4h at 37C from a centrifuged pellet (2,500 rpm/10 min/room temperature). Trypomastigotes were then collected and counted in a CASY Cell Counter. Trypomastigotes, in supplemented DMEM, were added to H9c2 cultures in a multiplicity of infection of 1 and incubated for 18 h. Cells were washed once with PBS before incubation of the infected H9c2 monolayer with trypsin (Life-Technologies) to detach cells from the flask. Cells were counted in a CASY Cell Counter using a 150 um capillary and their density set at 5 * 10^4 cells per mL in supplemented assay DMEM. Infected H9c2 were dispensed into 384-well poly-lysine coated assay plates at 50uL per well using a Multidrop Combi dispenser. After seeding them, the plates were incubated at 37C, 5% CO2 for 72h. Cultures were then fixed and stained by addition of 50 uL of a solution containing 8% formaldehyde and 4 uM DRAQ5 DNA dye (BioStatus, UK) per well. […] Five images were collected per well for reliable statistical analysis. Automated image analysis was performed with a script developed on Acapella High Content Imaging and Analysis Software (PerkinElmer). Output: number of amastigotes per cell as infection level measurement.; format: functional, organism-based, Rattus norvegicus; settings: H9c2, 4 h

Structure (SMILES)	IC50 (Leishmania donovani [1])	IC50 (Leishmania donovani [2])	IC50 (Trypanosoma cruzi [3])	IC50 at 48 h [4]	IC50 [5]	IC50 [6]	IC50 [7]	IC50 (Leishmania donovani [8])	IC50 (Trypanosoma cruzi [9])	IC50 (Trypanosoma cruzi [10])	IC50 (Leishmania donovani [11])	IC50 (Trypanosoma cruzi [12])
O=C(Nc1nc(-c2ccccn2)cs1)c1ccc(S(=O)(=O)N2CCCCC2)cc1	12.6 µM	1.26 µM	0.631 µM	63.1 µM	0.398 µM	0.631 µM	6.31 µM	1 µM	2.51 µM	0.631 µM	0.631 µM	0.398 µM
Cc1ccccc1NS(=O)(=O)c1ccc2[nH]cc(C(=O)NC3CCCCC3)c(=O)c2c1	31.6 µM	39.8 µM	15.8 µM	31.6 µM	0.251 µM	0.316 µM	10 µM	39.8 µM	25.1 µM	10 µM	> 50.1 µM	10 µM
Cc1ccc(NC(=O)c2ccc([N+](=O)[O-])s2)cc1S(=O)(=O)N1CCOCC1	39.8 µM	3.16 µM	0.398 µM	15.8 µM	0.251 µM	0.794 µM	20 µM	2 µM	5.01 µM	0.2 µM	2 µM	0.251 µM
COCCn1c(-c2ccc3c(c2)OCO3)cnc1NCc1ccccc1OC	39.8 µM	10 µM	20 µM	39.8 µM	20 µM	25.1 µM	5.01 µM	5.01 µM	39.8 µM	7.94 µM	12.6 µM	7.94 µM
COCCn1c(-c2ccccc2)cnc1NCc1ccccc1OC	50.1 µM	6.31 µM	15.8 µM	20 µM	25.1 µM	15.8 µM	7.94 µM	6.31 µM	> 50.1 µM	14.1 µM	> 50.1 µM	6.31 µM
O=C(Nc1nccs1)c1ccccc1Cn1cc([N+](=O)[O-])cn1	> 50.1 µM	> 50.1 µM	> 50.1 µM	> 100 µM	0.316 µM	0.501 µM	> 100 µM	> 50.1 µM	> 50.1 µM	> 50.1 µM	> 50.1 µM	> 50.1 µM
c1ccc(CNc2cccc3ccncc23)cc1	50.1 µM	7.94 µM	6.31 µM	> 100 µM	25.1 µM	> 39.8 µM	0.1 µM	5.01 µM	> 50.1 µM	6.31 µM	10 µM	5.01 µM
CCN(CC)S(=O)(=O)c1ccc(OC)c(NC(=O)c2ccc([N+](=O)[O-])s2)c1	> 50.1 µM	> 50.1 µM	0.158 µM	> 100 µM	0.398 µM	0.631 µM	31.6 µM	> 50.1 µM	> 50.1 µM	0.251 µM	> 50.1 µM	0.126 µM
